The source made the active and inactive calls. No cut-off for these calls is given here.
Experiments:
[1] = test system: Nakaseomyces glabratus; experiment: Antifungal activity against Candida glabrata at 10 mg/ml after 48 hrs by disc diffusion method; assay type: functional, organism-based
[2] = test system: Pichia membranifaciens; experiment: Antifungal activity against Pichia membranifaciens at 10 mg/ml after 48 hrs by disc diffusion method; assay type: functional, organism-based
[3] = test system: Proteus vulgaris; experiment: Antibacterial activity against Proteus vulgaris at 10 mg/ml after 24 hrs by disc diffusion method; assay type: functional, organism-based
[4] = test system: Candida tropicalis; experiment: Antifungal activity against Candida tropicalis at 10 mg/ml after 48 hrs by disc diffusion method; assay type: functional, organism-based
[5] = test system: Staphylococcus aureus; experiment: Antibacterial activity against Staphylococcus aureus at 10 mg/ml after 24 hrs by disc diffusion method; assay type: functional
[6] = test system: Klebsiella aerogenes; experiment: Antibacterial activity against Enterobacter aerogenes at 10 mg/ml after 24 hrs by disc diffusion method; assay type: functional, organism-based
[7] = test system: Photorhabdus luminescens; experiment: Antibacterial activity against Photorhabdus luminescens at 6.25 to 200 ug/ml after 24 hrs by microwell dilution method; assay type: functional, organism-based
[8] = test system: Schwanniomyces occidentalis; experiment: Antifungal activity against Schwanniomyces occidentalis at 10 mg/ml after 48 hrs by disc diffusion method; assay type: functional, organism-based
[9] = test system: Candida parapsilosis; experiment: Antifungal activity against Candida parapsilosis at 10 mg/ml after 48 hrs by disc diffusion method; assay type: functional, organism-based
[10] = test system: Acinetobacter radioresistens; experiment: Antibacterial activity against Acinetobacter radioresistens at 10 mg/ml after 24 hrs by disc diffusion method; assay type: functional, organism-based
[11] = test system: Micrococcus lylae; experiment: Antibacterial activity against Micrococcus lylae at 6.25 to 200 ug/ml after 24 hrs by microwell dilution method; assay type: functional, organism-based
[12] = test system: Hepacivirus hominis; experiment: Inhibition of HCV N-terminal His-tagged NS5B RNA dependent RNA polymerase expressed in Escherichia coli DH5alpha using poly rA/U12 as primer at 200 uM after 60 mins by liquid scintillation counting
[13] = test system: Pseudomonas aeruginosa; experiment: Antibacterial activity against Pseudomonas aeruginosa at 6.25 to 200 ug/ml after 24 hrs by microwell dilution method; assay type: functional, organism-based
[14] = test system: Escherichia coli; experiment: Antibacterial activity against Escherichia coli at 6.25 to 200 ug/ml after 24 hrs by microwell dilution method; assay type: functional, organism-based
[15] = test system: Staphylococcus cohnii; experiment: Antibacterial activity against Staphylococcus cohnii at 6.25 to 200 ug/ml after 24 hrs by microwell dilution assay; assay type: functional, organism-based
[16] = test system: Proteus vulgaris; experiment: Antibacterial activity against Proteus vulgaris at 6.25 to 200 ug/ml after 24 hrs by microwell dilution method; assay type: functional, organism-based
[17] = test system: Escherichia coli; experiment: Antibacterial activity against Escherichia coli at 10 mg/ml after 24 hrs by disc diffusion method; assay type: functional, organism-based
[18] = test system: Salmonella paratyphi; experiment: Antibacterial activity against Salmonella paratyphi at 6.25 to 200 ug/ml after 24 hrs by microwell dilution method; assay type: functional, organism-based; settings: Salmonella enterica subsp. enterica serovar Paratyphi A
[19] = test system: Salmonella paratyphi; experiment: Antibacterial activity against Salmonella paratyphi at 10 mg/ml after 24 hrs by disc diffusion method; assay type: functional, organism-based; settings: Salmonella enterica subsp. enterica serovar Paratyphi A
[20] = test system: Staphylococcus aureus; experiment: Antibacterial activity against Staphylococcus aureus at 6.25 to 200 ug/ml after 24 hrs by microwell dilution assay; assay type: functional, organism-based
[21] = test system: Staphylococcus cohnii; experiment: Antibacterial activity against Staphylococcus cohnii at 10 mg/ml after 24 hrs by disc diffusion method; assay type: functional
[22] = test system: Pseudomonas aeruginosa; experiment: Antibacterial activity against Pseudomonas aeruginosa at 10 mg/ml after 24 hrs by disc diffusion method; assay type: functional, organism-based
[23] = test system: Micrococcus lylae; experiment: Antibacterial activity against Micrococcus lylae at 10 mg/ml after 24 hrs by disc diffusion method; assay type: functional, organism-based
[24] = test system: Candida albicans; experiment: Antifungal activity against Candida albicans at 10 mg/ml after 48 hrs by disc diffusion method; assay type: functional, organism-based
[25] = test system: Acinetobacter radioresistens; experiment: Antibacterial activity against Acinetobacter radioresistens at 6.25 to 200 ug/ml after 24 hrs by microwell dilution method; assay type: functional, organism-based
[26] = test system: Kluyveromyces marxianus; experiment: Antifungal activity against Kluyveromyces marxianus at 10 mg/ml after 48 hrs by disc diffusion method; assay type: functional, organism-based
[27] = test system: Micrococcus luteus; experiment: Antibacterial activity against Micrococcus luteus at 6.25 to 200 ug/ml after 24 hrs by microwell dilution method; assay type: functional, organism-based
[28] = test system: Photorhabdus luminescens; experiment: Antibacterial activity against Photorhabdus luminescens at 10 mg/ml after 24 hrs by disc diffusion method; assay type: functional, organism-based
[29] = test system: Micrococcus luteus; experiment: Antibacterial activity against Micrococcus luteus at 10 mg/ml after 24 hrs by disc diffusion method; assay type: functional, organism-based
[30] = test system: Klebsiella aerogenes; experiment: Antibacterial activity against Enterobacter aerogenes at 6.25 to 200 ug/ml after 24 hrs by microwell dilution method; assay type: functional, organism-based
[31] = test system: Aspergillus; experiment: Antifungal activity against Aspergillus at 10 mg/ml after 72 hrs by disc diffusion method; assay type: functional, organism-based

| SMILES | Activity [1] | Activity [2] | Activity [3] | Activity [4] | Activity [5] | Activity [6] | Activity [7] | Activity [8] | Activity [9] | Activity [10] | Activity [11] | inhibition [12] [%] | Activity [13] | Activity [14] | Activity [15] | Activity [16] | Activity [17] | Activity [18] | Activity [19] | Activity [20] | further results |
| --- | --- | --- | --- | --- | --- | --- | --- | --- | --- | --- | --- | --- | --- | --- | --- | --- | --- | --- | --- | --- | --- |
| C=CCNC(=S)NNC(=O)C(C)c1ccc(-c2ccccc2)c(F)c1 (configuration not stated) | inactive | inactive | inactive | inactive | inactive | inactive | inactive | inactive | inactive | inactive | inactive | 8 | inactive | inactive | inactive | inactive | inactive | inactive | inactive | inactive | Activity [21]: inactive; Activity [22]: inactive; Activity [23]: inactive; Activity [24]: inactive; Activity [25]: inactive; Activity [26]: inactive; Activity [27]: inactive; Activity [28]: inactive; Activity [29]: inactive; Activity [30]: inactive; Activity [31]: inactive |
| CC(C(=O)NNC(=S)NC1CCCCC1)c1ccc(-c2ccccc2)c(F)c1 (configuration not stated) | inactive | inactive | inactive | inactive | inactive | inactive | inactive | inactive | inactive | inactive | inactive | 8 | inactive | inactive | inactive | inactive | inactive | inactive | inactive | inactive | Activity [21]: inactive; Activity [22]: inactive; Activity [23]: inactive; Activity [24]: inactive; Activity [25]: inactive; Activity [26]: inactive; Activity [27]: inactive; Activity [28]: inactive; Activity [29]: inactive; Activity [30]: inactive; Activity [31]: inactive |

— ChEMBL document CHEMBL3046898, “Synthesis and characterization of flurbiprofen hydrazide derivatives as potential anti-HCV, anticancer and antimicrobial agents” (2013)
